Data on one substance can be found in patent US20260200982A1, “HER RECEPTOR DERIVED PEPTIDES AND METHODS OF USE THEREOF” (Ramot at Tel-Aviv University Ltd., priority 2022, published 2026).

The test system of one experiment is U87 glioma cells. The class given is cell-based, human. The conditions noted are these: U87; 72 hours; FIGS. 4B and 4C; read-out: IC50 (cell viability). An excerpt:
Cell lines—Human breast cancer cell lines SKBR3 [Peles E et al. EMBO J. (1993) 12(3):961-71] and MCF7 [Faigenbloom L et al., Mol Syst Biol. (2015) 11(12):845] and human glioblastoma U87 [Goldberg L et al. Cancer Res. (2006) 66(24):11709-17] cell line, as well as Rat-1 fibroblast cells and H-Ras-transformed Rat-1 cells (EJ cells) [Marom M et al. J Biol Chem. (1995) 270(38):22263-70] and human Panc-1 and MIA PaCa-2 pancreatic cell lines (Rak R et al. Oncoscience. 2014 1(1):39-48; Weisz B et al. Oncogene (1999) 18, 2579±2588) were all grown in Dulbecco's modified Eagle's medium (DMEM; Biological Industries, Beithaemek, Israel). Human colorectal cancer cell lines DLD-1 (ATTC Cat No. CCL-221), HCT-116 (ATTC Cat No. CCL-247) and LNCaP prostate cancer cells were grown in Roswell Park Memorial Institute 1640 (RPMI 1640) medium and McCoy's 5A media, respectively (Sigma-Aldrich). All media were supplemented with antibiotics and 10% heat-inactivated fetal bovine serum (FBS; Gibco). Human breast cell line MCF10A [Bott A et al. Oncotarget. (2017) 8(27):43897-43914] was grown in Dulbeco's Modified Eagle's Medium/Nutrient Mixture F-12 HAM medium (DMEM F-12 HAM; Sigma-Aldrich), supplemented with antibiotics, 5% inactivated horse serum (HS; Invitrogen), 2 mM L-glutamine (Biological Industries, Beithaemek, Israel), 0.1 μg/ml cholera toxin (Sigma-Aldrich), 0.5 μg/ml hydrocortisone (Sigma-Aldrich), 10 μg/ml insulin (Biological Industries, Beithaemek, Israel) and 2 ng/ml EGF (R&D Systems). Cells were incubated at 37° C. in 5% CO2 in air, and the medium was changed every 3-4 days. Cells were passaged in trypsin/disodium ethylenediaminetetraacetic acid (Biological Industries, Beithaemek, Israel) when confluency reached 70%. One day prior to treatment the cells were plated at ~50% confluency in a medium supplemented with 10% FBS or 5% HS, accordingly.
Methylene blue viability assay—Cells were plated in 96-wells plates at cell densities of 1.5×10^3 (EJ, DLD-1), 3×10^3 (Rat-1, HCT-116, U87), 5×10^3 (SKBR3, MCF7) and 6×10^3 (MCF10A) cells/well. On the following day, cells were treated as indicated, and grown for 72 hours. Cell number determination was performed as described previously. IC-50 values were calculated using a non-linear regression model (logarithmic inhibitor vs. normalized response-variable slope) with the GraphPad Prism 6 software.

In another experiment the test system is EGFR (ErbB1). The experiment is described as follows: Immunoblotting of cell lysates, EGFR phosphorylation. Conditions: DLD-1 or Panc-1 cells; 24 hours; 25 μM and 10 μM; FIGS. 13A-B. The experiment is classed as cell-based, human. How it is done:
(§1) Lysate preparation and immunoblotting—Cells were seeded at cell densities of 1.5×10^5 (DLD-1), 1.8×10^5 (HCT-116) and 2.5×10^5 (SKBR3) cells/well, treated as indicated and grown for 24 hours. Following, cells were lysed in solubilization buffer; the lysates were cleared by centrifugation and a boiling gel sample buffer was added. Proteins were resolved by SDS-polyacrylamide gel electrophoresis through 10% polyacrylamide gels, and were electrophoretically transferred to nitrocellulose membranes. Membranes were blocked in TBST buffer containing 6% milk, and blotted with primary antibodies. Following, a secondary antibody linked to horseradish peroxidase was added. Immunoreactive bands were detected with the enhanced chemiluminescence reagent Immobilon Crescendo Western HRP substrate (WBLUR0100; Merck Millipore).
For orientation: Immunoblotting shows a protein as a band on a membrane.

The next experiment has as its system Panc-1 cells. Briefly: Colony formation assay, Panc-1. The class given is cell-based, human. The conditions noted are these: 8 μM, 72 hours, FIG. 8. How it is done:
Colony formation assay—Cells were plated onto 12-well plate (6×10^4 cells/well) and treated with either PBS or myr-NLS at the IC50 concentration for 3 days. Cells were collected and replated in 10-cm plates (at 3 dilutions of 1:10, 1:20 and 1:40). After 7-14 days when visible and yet separated colonies were formed, the cells were fixed with 0.1% acetic acid in PBS, and stained with 0.4% crystal violet in 0.1% acetic acid. Total colonies area was calculated using the ImageJ program.
In order to test the effect of myr-NLS on cell tumorigenicity, a colony formation assay was performed. To this end, Panc-1 and MIA PaCa-2 cells were treated or untreated for 72 hours with IC50 dose of myr-NLS (SEQ ID NO: 5, 8 μM and 4.5 μM respectively). Cells were then seeded at the same dilutions in new plates until colonies were formed.

Experiment [1] concerns Panc-1 (pancreatic cancer) tumor xenografts. The experiment is described as follows: Pancreatic Tumor Growth in Nude Mice. The experiment is classed as in vivo. Conditions: Panc-1 xenografts, 25 μg intraperitoneal daily, FIGS. 9A-C. Here is the method: Pancreatic Tumor Growth in Nude Mice—The study was conducted according to the NIH Guidelines for Use and Care of Laboratory Animals and following the approval by Animal Care Committee of the Tel Aviv University. Nude CD1-Nu mice (25-30 g) housed in barrier facilities on a 12-h light/dark cycle one week prior to the injection of tumor cells (day zero). On day zero, 2×10^6 Panc 1 cells in 0.1 ml of PBS were implanted subcutaneously just above the right femoral joint. Tumor size was measured every 3-4 days. When the tumors were apparently seen and the calculated tumor size was 40 mm^3, the animals were divided randomly into two groups of mice (control vehicle treated and myr-NLS (SEQ ID NO: 5) treated; 8 mice per group). Treatment with the myr-NLS (SEQ ID NO: 5) was performed by intraperitoneal injection of 25 μg in 100 μl PBS (or 100 μl PBS for control mice) every day. Tumors size was measured 3 times a week. At the end of the experiment, the mice were sacrificed, and the tumors were dissected and used for further analysis.

The test system of experiment [2] is DLD-1 colon cancer tumor xenografts. Briefly: Colon Tumor Growth in Nude Mice. The experiment is classed as in vivo. The conditions noted are these: DLD-1 xenografts, 25 μg/100 μl PBS intraperitoneal daily, FIGS. 14A-C. Here is the method:
Colon Tumor Growth in Nude Mice—Nude CD1-Nu mice (25-30 g) housed in barrier facilities on a 12-h light/dark cycle one week prior to the injection of tumor cells (day zero). On day zero, 5×10^6 DLD-1 cells were implanted subcutaneously just above the right femoral joint. Tumor size was measured every 3-4 days. When the tumors were apparently seen, the animals were divided randomly into three groups of mice [control vehicle treated, myr-NLS1 (SEQ ID NO: 5), myr-NLS4 (SEQ ID NO: 17)]. Treatment was performed by intraperitoneal injection of 25 μg in 100 μl PBS every day. Mice were weighed and tumors size was measured 3 times a week. At the end of the experiment, the mice were sacrificed, and the tumors were dissected and used for further analysis.

The target of another experiment is nucleolin (Homo sapiens, UniProt P19338). Briefly: Immunoblotting of cell lysates, nucleolin level. Conditions: DLD-1 or Panc-1 cells; 24 hours; 25 μM and 10 μM; FIGS. 13A-B. More on the design: endogenous in cells; host or cells: DLD-1, Panc-1. The experiment is classed as cell-based. How it is done:
as §1

“Also recorded” adds a separate entry of the source. The star is where a group is joined. Myristoyl = CCCCCCCCCCCCCC(=O)*

Sequence of nucleolin (P19338 whole entry): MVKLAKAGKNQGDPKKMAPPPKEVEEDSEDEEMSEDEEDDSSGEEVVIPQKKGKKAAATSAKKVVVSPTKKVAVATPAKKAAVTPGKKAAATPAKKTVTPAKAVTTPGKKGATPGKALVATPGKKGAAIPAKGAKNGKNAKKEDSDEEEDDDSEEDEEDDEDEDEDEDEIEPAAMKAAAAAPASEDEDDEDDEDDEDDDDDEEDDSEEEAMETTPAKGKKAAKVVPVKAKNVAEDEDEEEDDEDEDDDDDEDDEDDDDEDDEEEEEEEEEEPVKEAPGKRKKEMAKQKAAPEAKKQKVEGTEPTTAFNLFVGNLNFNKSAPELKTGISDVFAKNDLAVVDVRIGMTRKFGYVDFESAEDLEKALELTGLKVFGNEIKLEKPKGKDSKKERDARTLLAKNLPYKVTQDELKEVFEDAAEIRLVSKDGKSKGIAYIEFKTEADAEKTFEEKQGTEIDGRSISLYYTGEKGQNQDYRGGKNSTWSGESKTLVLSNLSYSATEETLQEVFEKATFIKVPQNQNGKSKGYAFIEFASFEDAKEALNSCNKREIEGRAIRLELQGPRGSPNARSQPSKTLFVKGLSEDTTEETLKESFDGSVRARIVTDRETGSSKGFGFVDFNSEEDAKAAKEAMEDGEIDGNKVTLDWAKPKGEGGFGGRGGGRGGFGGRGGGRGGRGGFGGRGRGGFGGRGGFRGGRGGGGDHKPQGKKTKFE

What is called IC50 is the concentration needed to halve the response being measured. Regarding “Myr-RRRHIVRKRTLRRLL-OH (Myristoyl-RRRHIVRKRTLRRLL-OH; SMILES CCCCCCCCCCCCCC(=O)N[C@@H](CCCNC(=N)N)C(=O)N[C@@H](CCCNC(=N)N)C(=O)N[C@@H](CCCNC(=N)N)C(=O)N[C@@H](Cc1c[nH]cn1)C(=O)N[C@H](C(=O)N[C@H](C(=O)N[C@@H](CCCNC(=N)N)C(=O)N[C@@H](CCCCN)C(=O)N[C@@H](CCCNC(=N)N)C(=O)N[C@H](C(=O)N[C@@H](CC(C)C)C(=O)N[C@@H](CCCNC(=N)N)C(=O)N[C@@H](CCCNC(=N)N)C(=O)N[C@@H](CC(C)C)C(=O)N[C@@H](CC(C)C)C(=O)O)[C@@H](C)O)C(C)C)[C@@H](C)CC) [myr-NLS]”, in the experiment with U87 glioma cells, the IC50 came out at 32.2 µM. Moreover, the “levels of phosphorylated EGFR” value with EGFR (ErbB1) is on record as “reduced”. Besides, the “colony formation (total colonies area)” value in the experiment on Panc-1 cells was “fewer and smaller colonies”. The “tumor growth (tumor size, tumor weight)” value in experiment [1] is “significantly reduced tumor cell growth; also recorded: inhibits pancreatic tumor growth”; in experiment [2], “significantly reduced tumor cell growth”. The “levels of expression of nucleolin” value with nucleolin is “reduced the levels of expression”.
